Converted amounts (≈) assume the structure as drawn. Where two headings read alike, the source gives them in different places. Starred links: 1 amine or outer side, 2 acyl side, 3 side chain; linkers in the order of their positions; H or OH if unused. Positions of bridges follow the written chain, without caps; N, C: chain ends. Non-standard residues stand in square brackets, D forms with d. Residues, ends and D or L forms follow the SMILES beside them. X2 = CCCCCCC[C@H](CC(=O)[*:1])O[*:2]; Val(3-OH) = CC(C)(O)[C@H](N)C(=O)O; X1 = C/C=C(/N[*:1])C(=O)[*:2]; Dab = NCC[C@H](N)C(=O)O; Dap = NC[C@H](N)C(=O)O
Tests used:
Assay type in all cases: cell-based
[1] = system: red blood cells from heparinized human blood; assay: in vitro; conditions: 45 min, 100 µM, pH 7.4
Protocol: positive control (Bortezomib) SI of <5%. The half maximal inhibitory concentration (IC50) was determined from log concentration-effect curves using non-linear regression analysis.
Frequency of resistance (FoR). For the determination of the FoR, the MIC of compound 2 was first evaluated on solid MH-agar medium prepared in 35 mm diameter plates. Each plate contained 4 mL agar with the appropriate amount of compound. Bacterial cultures were grown and prepared as described for the MIC assay. 13 µL of bacterial culture diluted to 0.5 MacFarland was inoculated into 1 mL 0.9% NaCl resulting in ~2 × 10^6 CFU/mL. 5 µL of this bacterial suspension was spotted onto the surface of each agar plate (~10^4 CFU/spot). Plates were sealed and incubated at 37°C for 18–20 hours. Agar MIC was recorded according to CLSI guidelines as the lowest concentration of […]
faint haze caused by the inoculum. Then 9 cm plates were prepared with 25 mL MHII agar medium containing 4 × or 8 × solid MIC concentrations of test compounds and seeded with 100 µL of a bacterial preparation, concentrated by centrifugation from overnight cultures and resuspended in 0.9% NaCl, corresponding to 108 CFU and 109 CFU per plate, and spread on the agar using 4–5 glass beads of 4 mm diameter. Since CFU were evaluated using the McFarland turbidity standard, the exact CFU number plated was evaluated by plating of serial dilutions of each inoculum preparation on MHII agar plates. Plates were incubated at 37°C and colonies were counted at 24 h and 48 h post-plating. The frequencies of resistance were then calculated by counting the number of validated resistant colonies growing on antibiotic preparations divided by the evaluated number of CFU in the inoculum.
Hemolysis assay. Compounds were evaluated for hemolytic activity using red blood cells from heparinized human blood. Red blood cells (RBC) were washed three times in Tyrode buffer (130 mM NaCl, 4 mM KCl, 2.8 mM NaOAc, 1 mM MgCl2, 10 mM HEPES, 10 mM glucose, 1 mM CaCl2, adjusted to pH 7.4) and resuspended in the same buffer. Final concentrations in the hemolysis assay were: 100 µM compound, 1% DMSO, and 50% RBC, assayed in a 200 µL volume in a microtiter plate. The mixture was incubated at 37 °C for 45 min with shaking (250 rpm). After incubation, RBCs were removed by centrifugation (1000 × g for 10 min), 100 µL clear plasma was transferred to a fresh microtiter plate, and the amount of hemoglobin measured using a spectrophotometer at 540 nm. The […]
complete lysis control contained 2% Triton X-100 (in Tyrode buffer) instead of compound; the negative control contained Tyrode buffer but no compound. Percent hemolysis was calculated as:
[Abs compound] - [Abs negative control] / [Abs complete lysis control] - [Abs negative control] ×
100. Values greater than 1% hemolysis at 100 µM were regarded as a red flag.
Bacterial membrane permeabilization assay. Liposomes were manufactured and permeabilization assayed as described previously.8 Briefly, dry lipid films of E. coli polar lipid extract were formed on round-bottom flask walls. This was achieved by dissolving lipids in chloroform and evaporating the solvent under agitation and nitrogen gas flow, followed by incubation in vacuum chamber. Lipid films were re-suspended by 30 min stirring (E. coli) at 55°C in an aqueous solution of 100 mM 5(6)-carboxyfluorescein in 10 mM Tris buffer (set to pH 7.4 at 37°C). Suspensions were subjected to repeated extrusion through a 100 nm pore size polycarbonate membrane in order to reduce multilamellar structures and polydispersity. Un-trapped carboxyfluorescein was removed by gel filtration. Membrane permeability was measured by monitoring carboxyfluorescein efflux from the liposomes to the external low concentration environment, resulting in loss of self-quenching and an increased fluorescence signal. The 96-well plates were prepared with a 2-fold serial dilution of the samples in Tris buffer, as well as negative controls (background) and 0.16% Triton X-100 (maximum […]
leakage). […]

[2] = system: A. baumannii; assay: MIC determined at the Public Health Agency of Sweden (EUCAST); conditions: Acinetobacter baumannii
Protocol: (§1) 10^8 CFU/mL) with turbidity assessed using a Sensititre Nephelometer (Trek Diagnostics Systems Ltd, UK). 50 µL of this bacterial suspension was transferred to 10 mL of MHII broth to give a final bacterial concentration ≅ 5 × 10^5 CFU/mL (acceptable range 3 – 7 × 10^5 CFU/mL). 50 µL of bacterial suspension was pipetted into each well (except the medium control well, where 50 µL MHII was pipetted). Final volume in each well was 100 µL. Plates were covered and incubated without shaking for 18-20 h at 35 °C ± 2 °C. MIC was read visually, as complete inhibition of growth by the unaided eye, using the medium-only wells as the control. Each compound was assayed at least in duplicate.
(§2) Additionally, the MIC for compound 2 against clinical carbapenem-resistant strains of A. baumannii […]
(§3) determined at the Public Health Agency of Sweden (according to EUCAST recommendations).
(§4) In vitro Cytotoxicity Determination. In vitro cytotoxicity was determined by a fluorometric microculture cytotoxicity assay,7 based on hydrolysis of fluorescein diacetate to fluorescein by cells with intact plasma membranes. In short, HepG2 cells (hepatocellular carcinoma cells, ATCC), in Eagle's Minimum Essential Medium (ATCC) supplemented with 10 % fetal bovine serum, penicillin/streptomycin (100 U/100 µg/mL) and 2 mM L-glutamine, were seeded in 384-well assay plates at a density of 1000 cells/well. The cells were incubated over night at 37°C and compounds in 10 mM DMSO were added, to obtain final concentrations 64 µM – 0.25 µM in two-fold dilutions.
(§5) After incubation for 72 h at 37°C, the cells were pelleted and washed. Fluorescein diacetate was added (1 µL, 0.5 mg/mL) and the fluorescence [485 nm(exc)/530 nm(em.)] was measured after 50 min at 37°C. Bortezomib (2 µM) was used as positive control and dose response testing of doxorubicin (top concentration 2 µM) was performed repeatedly to follow assay performance over time. Cytotoxicity was assessed after 72 h with cell survival presented as survival index (SI, %) defined as fluorescence in test wells in percent of control cultures with blank values subtracted.
(§6) Criteria for a successful assay include a signal-to-noise ratio in control cultures >10, CV <30% and a 7 Lindhagen, E., Nygren, P., and Larsson, R. (2008) The fluorometric microculture cytotoxicity assay. Nat.

[3] = system: E. coli; assay: as above; conditions: Escherichia coli
Protocol: as §1, §2, §3, §4, §5, §6

For `C/C=C1/NC(=O)[C@H](CCN)NC(=O)[C@H](CC(C)C)NC(=O)[C@H](CN)NC(=O)C[C@@H](CCCCCCC)OC(=O)[C@H](CC(=O)O)NC(=O)[C@H](C(C)(C)O)NC(=O)[C@@H](Cc2ccccc2)NC(=O)[C@H](CN)NC(=O)[C@H]([C@@H](C)O)NC1=O` [Compound 2, isopedopeptin B] ([Dap]L[Dab][X1]T[Dap][dF][Val(3-OH)]D; linker N-C via X2), the “Hemolysis (%)” value [1] was 0.8%, the MIC ([2]; CARBA, Public Health Agency of Sweden, read-out: MIC A. baumannii A219) was 2 µg/mL (≈ 1.79 µM) and the MIC ([2]; CARBA, Public Health Agency of Sweden, read-out: MIC A. baumannii A250) was 2 µg/mL (≈ 1.79 µM). For the same compound, the MIC ([2]; summary in text over strains, strains not named, read-out: MIC carbapenem-resistant A. baumannii) was at least 1 µg/mL, the MIC ([3]; ATCC25922, WT, Public Health Agency of Sweden, read-out: MIC E. coli ATCC25922) was 1 µg/mL (≈ 0.895 µM) and the MIC ([3]; CARBA, Public Health Agency of Sweden, read-out: MIC E. coli EC4129) was 2 µg/mL (≈ 1.79 µM). For the same compound, the MIC ([3]; CARBA, Public Health Agency of Sweden, read-out: MIC E. coli EC4163) was 1 µg/mL (≈ 0.895 µM) and the MIC ([3]; summary in text over strains, strains not named, read-out: MIC carbapenem-resistant E. coli) was at least 2 µg/mL.

— article PMC7684578, “Isopedopeptins A–H: Cationic Cyclic Lipodepsipeptides from Pedobacter cryoconitis UP508 Targeting WHO Top-Priority Carbapenem-Resistant Bacteria” (ACS Chemical Biology, 2020)
